Test results as given in BindingDB's records for doi:10.1016/j.bmcl.2018.09.032 (Shionogi, 2018).

Assay: Transrepression of RORgammat in anti-CD3/CD28 stimulated human PBMC derived CD4-positive T cells assessed as suppression of T cell differentiation to Th17 cells by measuring reduction in IL-17A level after 7 days by flow cytometry analysis

Row | IC50 [nM] | Structure (SMILES)
1 | 36 | CCS(=O)(=O)c1ccc(CC(=O)Nc2ccc(C(C)(C)C(=O)Nc3ccc(F)cc3F)cc2)cc1
2 | 13 | CCS(=O)(=O)c1ccc(CC(=O)Nc2ccc(C(C)(C)C(=O)Nc3ccc(F)cc3F)c(F)c2)cc1
